{"source": "patent US20250136652A1", "about": "“FUSION PROTEIN FOR TARGETING RECOMBINANT PROTEINS FOR DEGRADATION” (The Regents of the University of California, priority 2022, published 2025)", "key": {"[1]": {"test_system": "STUD degradation of GFP (ubiquitin proteasome pathway)", "assay": "Inhibitor assay: rescue of GFP fluorescence in Jurkat T cells expressing SynZip STUD and GFP target", "assay_type": "cell-based", "details": "5 hours; for GFP fluorescence rescue relative to DMSO vehicle control: cells express functional STUD and GFP target", "method": "FIG. 3: STUD degradation of GFP is mediated by the cullins in UPP. Representative flow cytometry distributions of GFP fluorescence of Jurkat T cells expressing the SynZip STUD described in FIG. 2B treated with one of three drugs or a DMSO vehicle control. Distributions are representative of three independent experiments.\nUsing the 2 plasmid system as described above, we lentivirally transduce Jurkat T cells. 72 hours after removal of lentivirus, we treat these Jurkat T cells and an untransduced control cell line with either 5 μM of the proteasomal inhibitor MG-132, 1 μM of the cullin ring ligase inhibitor MLN4924, 100 nM of the lysosomal inhibitor Bafilomycin A1, or DMSO vehicle control and incubate at 37 C for 5 hours. […] FIG. 3.\nFlow cytometry: All flow cytometry data was obtained using a LSR Fortessa (BD Biosciences). All assays were run in a 96-well round bottom plate (Fisher Scientific #08-772-2C). Samples were prepared by pelleting cells in the plate using centrifugation at 400×g for 4 minutes. Supernatant was then removed and 200 μL of PBS (UCSF Cell Culture facility) was used to wash cells. The cells were again pelleted as described above and supernatant was removed. Cells were resuspended in 120 μL of Flow buffer (PBS+2% FBS) and mixed by pipetting prior to flow cytometry assay.\n(§1) Inhibitor Assays: 100,000 cells were plated in a 96 well round bottom plate with either 5 μM MG-132 (Sigma-Aldrich #M7449-200UL), 1 μM MLN4924 (Active Biochem #A-1139), 100 nM Bafilomycin A1 (Enzo Life Sciences #BML-CM110-0100), or DMSO vehicle control and incubated at 37 C for 5 hours. After incubation, cells were pelleted by centrifugation at 400×g for 4 minutes. Supernatant was then removed and cells were washed once with 200 μL PBS. Cells were pelleted again (400×g for 4 minutes) and resuspended in flow buffer (PBS+2% FBS) for assay by flow cytometry."}, "[2]": {"test_system": "NALM6 target cells", "assay": "MLN4924 dose response: ON switch CAR lysis of NALM6 target cells", "assay_type": "cell-based, human", "details": "MLN4924 1 μM to 0.015625 μM; 72 hours at 37 C; CD8+ T cells with antiCD19BBz CAR-SynZip and memSTUD", "method": "We engineer CD8+ primary human T cells that express an antiCD19BBz CAR fused to a SynZip and a STUD to recognizes the SynZip. As a control, the CD8+ primary human T cells that express the same CAR without the SynZip and the SynZip STUD were also engineered. Both these cell lines were cocultured and an untransduced (UnT) control with NALM6 target cells for 72 hours at 37 C in the presence of various concentrations of MLN4924. Lysis of target cells was calculated by each line relative to NALM6 cells cultured alone by flow cytometry.\nCD8+ primary human T cells were engineered with an antiCD19BBz CAR fused to a SynZip and a memSTUD that binds the SynZip using the same plasmids outlined in FIG. 14A by lentiviral transduction. As a control, we also lentivirally transduce CD8+ primary human T cells with an antiCD19BBz and a SynZip memSTUD which cannot bind the CAR. These engineered cells and an untransduced control were cocultured with NALM6 target cells for 72 hours at 37 C in the presence of MLN4924 ranging from 1 μM to 0.015625 μM and a DMSO vehicle control. After coculture, target cell lysis was assayed by flow cytometry. Specific target cell lysis of each cell line relative to NALM6 cells cultured alone in the same conditions was then calculated.\nCo-culture assays: For all assays, T cells and target cells were co-cultured at a 1:1 ratio with cell numbers varying per assay. […]"}, "[3]": {"test_system": "STUD knockdown of anti-CD19 4-1BB CD3zeta CAR", "assay": "MLN4924 rescue of STUD knockdown of CD19BBz CAR expression in CD8+ primary T cells", "assay_type": "cell-based, human", "details": "1 μM MLN4924, 5 hours, 37 C", "method": "FIG. 4D. Plasmid in FIG. 4A is transduced into CD8+ primary T cells and anti-CD19 4-1BB CD3zeta CAR expression and activation is assayed. Left: Cullin inhibitor MLN4924 is added to engineered T cells to rescue degradation of CAR by STUD. […] Black bars represent each condition with DMSO vehicle control. Middle: Engineered T cells are cocultured with NALM6 target cells for 72 hours and lysis is measured by flow cytometry. Lysis is calculated relative to lysis of NALM6 cells cultured with UnT T cells. Right: Median fluorescence of T cell activation marker CD25 after coculture is measured by antibody stain for CD25 and flow cytometry.\nEngineered CD8+ T cells expressing were cocultured with NALM6 target cells and measured activation of the CAR by quantifying target cell lysis and expression of the T cell activation marker CD25.\nas §1, with “cytometry. […]” for “cytometry.”"}, "[4]": {"target": "GFP fused to a heterodimeric SynZip protein complementary to the binding domain on the STUD", "sequence (chain, as listed by the source)": "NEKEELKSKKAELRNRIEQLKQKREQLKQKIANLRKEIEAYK", "assay": "cell-based or functional assay"}}, "note": "Residues, ends and D or L forms follow the SMILES beside them. *: point of attachment. Cbz = O=C(OCc1ccccc1)*", "data": [{"molecule": "CO/C1=C\\C(C)=C\\[C@@H](C)[C@@H](O)[C@@H](C)C/C(C)=C/C=C/[C@H](OC)[C@@H]([C@@H](C)[C@@H](O)[C@H](C)[C@@]2(O)C[C@@H](O)[C@H](C)[C@@H](C(C)C)O2)OC1=O", "note": "[Bafilomycin A1]", "values": [{"measurement": "GFP fluorescence change relative to DMSO vehicle control", "setting": "[1]; 100 nM Bafilomycin A1, 37 C", "result": "No changes to GFP fluorescence"}]}, {"molecule": "CC(C)C[C@@H](C=O)NC(=O)[C@H](CC(C)C)NC(=O)[C@H](CC(C)C)NC(=O)OCc1ccccc1", "note": "[MG-132] (Cbz-Leu-Leu-Leu-aldehyde)", "values": [{"measurement": "GFP fluorescence rescue relative to DMSO vehicle control", "setting": "[1]; 5 μM MG-132, 37 C", "result": "can indeed be rescued"}]}, {"molecule": "NS(=O)(=O)OC[C@@H]1C[C@@H](n2ccc3c(N[C@H]4CCc5ccccc54)ncnc32)C[C@@H]1O", "note": "[MLN4924]", "values": [{"measurement": "specific target cell lysis by CAR", "setting": "[2]", "result": "dose dependent"}, {"measurement": "GFP fluorescence rescue relative to DMSO vehicle control", "setting": "[1]; 1 μM MLN4924, 37 C", "result": "can indeed be rescued"}, {"measurement": "rescue of STUD knockdown of CAR expression", "setting": "[3]", "result": "can rescue STUD knockdown of CAR expression"}]}, {"molecule": "synZIP STUD (Synthetic Targeter of Ubiquitination and Degradation) (designed binder) SIAATLENDLARLENENARLERDIANLERDLARLEREEAYFGSGSGSGSGSRRRG", "values": [{"measurement": "fold change of median normalized GFP fluorescence (GFP/tagBFP), flow cytometry, Jurkat T cells", "setting": "[4]", "result": 42, "unit": "fold"}]}]}
